Assay results: US20190216835A1 (priority 2016, published 2019)

Tested on: Zika virus strain MR766
Type: cell-based
Conditions: for effect on replication of Zika virus (percent infected cells, FIG. 1): Vero cells infected 48 h with ZIKV MR766, MOI 0.3-0.5, compound added at time of infection, DMSO control
Procedure: FIG. 1 is a bar graph showing the results of experiments wherein Vero cells were infected for 48 h with Zika virus MR766 and stained for DNA and double stranded viral RNA. The indicated compounds at the indicated concentrations were added at the time of infection. Mean percent infected cells of n=3 experiments are shown +/−SD.
FIG. 2 is a set of images of Vero cells infected for 48 h with Zika virus MR766 and stained for DNA (blue) and double stranded viral RNA (green). Either Lanatoside 6 nM or DMSO (v/v) was added at the time of infection. Mean percent infected cells of n=3 experiments are shown +/−SD.
The effects of a number of small molecules previously reported to be effective in inhibiting replication of related viruses were evaluated on replication of the Zika virus using an immunofluorescence readout for viral protein expression. Molecules tested included Ivermectin 18898-1G; Mycophenolic acid M3536-50MG; Brequinar SML0113-5MG; Sodium Oxamate O2751-5G; Chloroquine C6628-25G; Hydroxychloroquine H0915-5MG; and Lanatoside C L2261-100MG.
Cells: Vero cells (ATCC, CCL-81) were cultured in complete Dulbecco's Modified Eagle Media (Sigma) with 10% FBS (Invitrogen) and 2 mM L-glutamine (Invitrogen).
Viruses: Zika virus strain MR766 was kindly provided by Dr. Robert Tesh at the World Reference Center for Emerging Viruses and Arboviruses at the University of Texas Medical Branch in Galveston Tex. MR766 was obtained originally from a Rhesus macaque in Uganda in 1947. Viruses were propagated in Vero cells (ATCC) (Dick et al., 1952) and the titer determined by standard plaque assays and immunofluorescence imaging assays for E protein expression.
Infection assays: Vero cells were plated the night before in a 384-well plate format. The following day the cells were infected with ZIKV MR766 at an MOI of 0.3-0.5 in the presence of the indicated compounds or the DMSO control (v/v). 48 hr post-infection the cells are fixed with formalin, permeabilized with 0.1% Triton-X100 and immunostained using the 4G2 monoclonal antibody against the E protein. The cells were then incubated with an Alexa Fluor 488 goat anti-mouse secondary and stained for DNA with Hoechst 33342. The cells were imaged on an automated Image Express Micro (IXM) microscope at 4× magnification. Images were analyzed using the MetaXpress software program to determine the total cells per well, and the percentage of infected cells in each well.

Molecule | effect on replication of Zika virus (percent infected cells, FIG. 1) | stopping replication of the virus (FIG. 2) (Vero cells infected 48 h with ZIKV MR766, Lanatoside 6 nM vs DMSO added at time of infection)
22,23-dihydroavermectin B1a+22,23-dihydroavermectin B1b [ivermectin] | significant effect | –
CC(=O)O[C@H]1C[C@H](O[C@H]2[C@@H](O)C[C@H](O[C@H]3[C@@H](O)C[C@H](O[C@H]4CC[C@@]5(C)[C@H](CC[C@@H]6[C@@H]5C[C@@H](O)[C@]5(C)[C@@H](C7=CC(=O)OC7)CC[C@]65O)C4)O[C@@H]3C)O[C@@H]2C)O[C@H](C)[C@H]1O[C@@H]1O[C@H](CO)[C@@H](O)[C@H](O)[C@H]1O [Lanatoside C, 3β-[4-O-β-D-Glycopyranosyl-4-O-(3-O-acetyl-β-D-digitoxopyranosyl)-4-O-β-D-digitoxopyranosyl-β-D-digitoxopyranosyl]-12β,14-dihydroxy-5β,14β-card-20(22)-enolid] | significant effect | effective at stopping replication of the virus
NC(=O)c1ncn([C@@H]2O[C@H](CO)[C@@H](O)[C@H]2O)n1 [ribavirin, 1-[(2R,3R,4S,5R)-3,4-dihydroxy-5-(hydroxymethyl)oxolan-2-yl]-1H-1,2,4-triazole-3-carboxamide] | significant effect | –
